Reference: ChEMBL document CHEMBL1140758, “Chemoenzymatic synthesis and antiviral evaluation of conformationally constrained and 3'-methyl-branched carbanucleosides using both enantiomers of the same building block” (Bioorg Med Chem, 2008)
The source made the active and inactive calls.

Legend:
Assay type in all cases: functional, organism-based
[1] = tested on: Influenza A virus; assay: Antiviral activity against influenza A virus H1N1 in MDCK cells at 100 ug/mL
[2] = tested on: Mammalian orthoreovirus 1; assay: Antiviral activity against Reovirus1 in Vero cells at 100 ug/mL
[3] = tested on: Coxsackievirus B4; assay: Antiviral activity against Coxsackie virus B4 in Vero cells at 100 ug/mL
[4] = tested on: Human alphaherpesvirus 1; assay: Antiviral activity against thymidine kinase deficient HSV1 KOS in HEL cells at 100 ug/mL
[5] = tested on: Human alphaherpesvirus 2; assay: Antiviral activity against HSV2 G in HEL cells at 100 ug/mL
[6] = tested on: Vesicular stomatitis virus; assay: Antiviral activity against VSV in HEL cells at 100 ug/mL
[7] = tested on: Influenza A virus; assay: Antiviral activity against influenza A virus H3N2 in MDCK cells at 100 ug/mL
[8] = tested on: Coxsackievirus B4; assay: Antiviral activity against Coxsackie virus B4 in HeLa cells at 100 ug/mL
[9] = tested on: Human alphaherpesvirus 1; assay: Antiviral activity against HSV1 KOS in HEL cells at 100 ug/mL
[10] = tested on: Sindbis virus; assay: Antiviral activity against Sindbis virus in Vero cells at 100 ug/mL
[11] = tested on: Punta Toro virus; assay: Antiviral activity against Punta Toro virus in Vero cells at 100 ug/mL
[12] = tested on: Influenza B virus; assay: Antiviral activity against influenza B virus in MDCK cells at 100 ug/mL
[13] = tested on: Vaccinia virus; assay: Antiviral activity against vaccinia virus in HEL cells at 100 ug/mL; conditions: Orthopoxvirus vaccinia
[14] = tested on: Respiratory syncytial virus; assay: Antiviral activity against RSV in HeLa cells at 100 ug/mL
[15] = tested on: Vesicular stomatitis virus; assay: Antiviral activity against VSV in HeLa cells at 100 ug/mL
[16] = tested on: Human respirovirus 3; assay: Antiviral activity against parainfluenza 3 virus in Vero cells at 100 ug/mL

Measured: Activity

C[C@]12O[C@H]1[C@H](n1cnc3c(NC4CC4)nc(N)nc31)C[C@@H]2CO
inactive: [1] | [2] | [3] | [4] | [5] | [6] | [7] | [8] | [9] | [10] | [11] | [12] | [13] | [14] | [15] | [16]

C[C@]12O[C@H]1[C@H](n1cnc3c(NC4CC4)ncnc31)C[C@@H]2CO
inactive: [1] | [2] | [3] | [4] | [5] | [6] | [7] | [8] | [9] | [10] | [11] | [12] | [13] | [14] | [15] | [16]

C[C@]12O[C@H]1[C@H](n1cnc3c(N)ncnc31)C[C@@H]2CO
inactive: [1] | [2] | [3] | [4] | [5] | [6] | [7] | [8] | [9] | [10] | [11] | [12] | [13] | [14] | [15] | [16]

C[C@]12C[C@H](n3cnc4c(N)ncnc43)C[C@@]1(CO)O2
inactive: [1] | [2] | [3] | [4] | [5] | [6] | [7] | [8] | [9] | [10] | [11] | [12] | [13] | [14] | [15] | [16]

C[C@]12C[C@H](n3cnc4c(NC5CC5)ncnc43)C[C@@]1(CO)O2
inactive: [1] | [2] | [3] | [4] | [5] | [6] | [7] | [8] | [9] | [10] | [11] | [12] | [13] | [14] | [15] | [16]

C[C@]12C[C@H](n3cnc4c(NC5CC5)nc(N)nc43)C[C@@]1(CO)O2
inactive: [1] | [2] | [3] | [4] | [5] | [6] | [7] | [8] | [9] | [10] | [11] | [12] | [13] | [14] | [15] | [16]
